In ChEMBL document CHEMBL5463723, “Data for DCP probe BIBO3304” (2023) one finds IC50 data, which are given here for one compound.

The target of test [1] is Neuropeptide Y receptor type 5 (Rattus norvegicus, UniProt Q63634). The experiment in a line: Radioligand binding assay (rat NPY5R, CHO cells). The class given is cell-based.
Test [2] concerns the target T1, Neuropeptide Y receptor type 2 (Homo sapiens, UniProt P49146).
T1 sequence (P49146 whole entry): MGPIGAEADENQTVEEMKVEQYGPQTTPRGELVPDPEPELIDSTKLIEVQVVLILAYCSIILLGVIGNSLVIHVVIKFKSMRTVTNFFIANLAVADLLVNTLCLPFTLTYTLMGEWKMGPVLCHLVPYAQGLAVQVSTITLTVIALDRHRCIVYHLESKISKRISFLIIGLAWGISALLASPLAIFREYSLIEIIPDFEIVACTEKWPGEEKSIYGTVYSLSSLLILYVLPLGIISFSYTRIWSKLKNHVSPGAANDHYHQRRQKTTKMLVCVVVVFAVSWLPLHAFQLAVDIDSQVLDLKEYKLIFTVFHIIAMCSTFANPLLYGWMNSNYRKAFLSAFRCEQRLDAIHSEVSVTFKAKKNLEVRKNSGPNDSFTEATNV
Nature of the test: Radioligand binding assay (NPY2R, BHK). The class given is cell-based, BHK-21.

In test [3] the target is Neuropeptide Y receptor type 4 (Rattus norvegicus, UniProt Q63447). Nature of the test: Radioligand binding assay (rat NPY4R, CHO cells). In kind it is cell-based.
Test [4] addresses Neuropeptide Y receptor type 4 (Homo sapiens, UniProt P50391). Nature of the test: Radioligand binding assay (human NPY4R, CHO cells). The class given is cell-based.
For test [5], the target named is Neuropeptide Y receptor type 5 (Homo sapiens, UniProt Q15761). Nature of the test: Radioligand binding assay (human NPY5R, HEK293). The class given is cell-based.
The target in test [6] is T1, Neuropeptide Y receptor type 2. The experiment in a line: Radioligand binding assay (NPY2R, SMS-KAN cells). The class given is cell-based.

Neuropeptide Y receptor type 5 (Homo sapiens, UniProt Q15761), sequence (Q15761 whole entry): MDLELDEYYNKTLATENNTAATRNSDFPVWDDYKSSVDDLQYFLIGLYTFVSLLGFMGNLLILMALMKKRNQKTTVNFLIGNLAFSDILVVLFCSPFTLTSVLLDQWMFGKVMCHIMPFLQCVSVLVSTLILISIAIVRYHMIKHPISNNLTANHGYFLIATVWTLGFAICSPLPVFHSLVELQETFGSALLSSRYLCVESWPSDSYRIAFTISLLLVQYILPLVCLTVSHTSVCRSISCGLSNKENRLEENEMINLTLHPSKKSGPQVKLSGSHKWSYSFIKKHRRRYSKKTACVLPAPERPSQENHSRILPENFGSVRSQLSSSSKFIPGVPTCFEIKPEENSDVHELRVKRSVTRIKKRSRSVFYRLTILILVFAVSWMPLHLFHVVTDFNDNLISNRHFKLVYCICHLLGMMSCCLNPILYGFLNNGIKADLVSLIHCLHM
Neuropeptide Y receptor type 4 (Rattus norvegicus, UniProt Q63447), sequence (Q63447 whole entry): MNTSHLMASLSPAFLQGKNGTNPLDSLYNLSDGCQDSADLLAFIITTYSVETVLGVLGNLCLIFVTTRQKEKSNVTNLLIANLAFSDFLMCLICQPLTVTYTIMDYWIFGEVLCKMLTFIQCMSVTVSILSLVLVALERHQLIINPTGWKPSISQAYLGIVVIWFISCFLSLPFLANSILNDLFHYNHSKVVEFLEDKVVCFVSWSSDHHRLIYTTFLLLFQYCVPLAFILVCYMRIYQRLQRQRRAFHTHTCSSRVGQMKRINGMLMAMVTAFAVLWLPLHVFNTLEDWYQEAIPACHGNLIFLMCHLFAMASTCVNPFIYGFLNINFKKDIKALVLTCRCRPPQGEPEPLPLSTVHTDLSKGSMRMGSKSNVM
Neuropeptide Y receptor type 5 (Rattus norvegicus, UniProt Q63634), sequence (Q63634 whole entry): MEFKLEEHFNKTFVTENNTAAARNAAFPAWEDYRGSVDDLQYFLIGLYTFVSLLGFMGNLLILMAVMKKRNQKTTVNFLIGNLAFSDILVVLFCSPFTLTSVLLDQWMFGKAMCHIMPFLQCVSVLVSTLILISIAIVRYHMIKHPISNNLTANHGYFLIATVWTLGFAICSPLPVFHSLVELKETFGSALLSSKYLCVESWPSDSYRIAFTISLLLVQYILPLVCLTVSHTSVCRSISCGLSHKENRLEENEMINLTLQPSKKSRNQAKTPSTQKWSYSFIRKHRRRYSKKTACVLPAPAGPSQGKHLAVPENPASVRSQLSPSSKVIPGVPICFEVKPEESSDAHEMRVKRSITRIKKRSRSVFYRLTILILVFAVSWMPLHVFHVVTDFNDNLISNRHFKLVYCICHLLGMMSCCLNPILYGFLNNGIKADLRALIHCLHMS
Neuropeptide Y receptor type 4 (Homo sapiens, UniProt P50391), sequence (P50391 whole entry): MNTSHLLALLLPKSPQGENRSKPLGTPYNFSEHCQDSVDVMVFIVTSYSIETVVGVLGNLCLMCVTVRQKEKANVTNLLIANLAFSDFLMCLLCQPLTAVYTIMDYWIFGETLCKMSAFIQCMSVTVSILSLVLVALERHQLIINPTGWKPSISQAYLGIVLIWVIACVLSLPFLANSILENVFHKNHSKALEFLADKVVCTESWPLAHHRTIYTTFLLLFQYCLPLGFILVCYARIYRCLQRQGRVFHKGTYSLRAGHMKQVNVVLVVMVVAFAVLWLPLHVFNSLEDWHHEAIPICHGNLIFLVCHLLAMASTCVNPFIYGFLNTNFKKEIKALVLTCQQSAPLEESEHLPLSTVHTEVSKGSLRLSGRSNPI

As to `N=C(N)NCCC[C@H](NC(=O)C(c1ccccc1)c1ccccc1)C(=O)NCc1ccc(CNC(N)=O)cc1`, the IC50 is given as 23 µM (not active) in test [1]; > 10 µM (not active) in test [2]; > 10 µM (not active) in test [3]; 24 µM (not active) in test [4]; 28 µM (not active) in test [5]; > 10 µM (not active) in test [6].
